What was measured:
[1] = biological target: T1, recombinant human carbonic anhydrase IX (Homo sapiens, UniProt Q16790); assay: Carbonic anhydrase IX esterase activity assay (4-NPA); assay type: biochemical; details: 30 μM, 5 min incubation
T1 construct: purchased Sigma SRP6483
Protocol: The in vitro effect of metal complexes on the enzyme carbonic anhydrase IX was analyzed by monitoring conversion of 4-nitrophenyl acetate (4-NPA) to 4-nitrophenol. The tests were carried out in 96-well plates. Gold complexes (4 µL) were incubated with 4 µL recombinant human carbonic anhydrase IX (Sigma SRP6483, St Louis, MO, USA) (50 µg/mL) at 25 °C for 5 min. PBS at pH 7.35 (Sigma D1408, St Louis, MO, USA) was added to reach a final volume of 90 µL. The reaction was started by adding 10 µL 4-NPA (0.5 mM in methanol), and the absorbance at 405 nm was monitored every 30 s for 1 h using a SPECTROstar Nano (BMG Labtech, Ortenberg, Germany) multiplate reader. The results were expressed as a percentage of CA-IX activity with respect to the control. The potency of the inhibtion referred to the incubation in the presence of indisulam (E7070, N-(3-chloro-7-indolyl)-1,4-benzenedisulfonamide) (Sigma SML1225, St Louis, MO, USA), which is a specific inhibitor of carbonic anhydrase isoforms IX and XII.

p53 = assay: Determination of p53 protein by flow cytometry; assay type: cell-based, human; details: Caco-2; complex 1 1.14 µM 48 h, complex 8 7.22 µM 72 h
Protocol: Caco-2 cells were seeded in a 75 cm^2 flask at a density of 1 × 10^4 cells/cm^2; 24 h later, they were exposed to the drug panel for 48 or 72 h. Then, the cells were collected and processed as previously described. Finally, 50 µL of every sample was incubated with 5 µL anti-active caspase-3 (BD Pharmigen, San Diego, CA, USA, Clone C92-605) and 5 µL p53 antibody (Miltenyi, Auburn, CA, USA, Clone REA609). The fluorescence was measured by flow cytometry using a Beckman Coulter Gallios (Brea, CA, USA) equipped with a blue solid diode laser (488 nm) and a red solid diode laser (635 nm). For the caspase-3 determination, the excitation wavelength was set at 488 nm and the emission was set at 525 nm; for the p53 analysis, the excitation was set at 635 nm and the emission was set at 660 nm.

Caco-2 cells [2] = assay: Propidium iodide DNA staining and cell cycle analysis; assay type: cell-based, human; details: complex 1 1.14 µM 48 h, complex 8 7.22 µM 72 h
Protocol: Once the cells were seeded in 25 cm^2 flasks at a density of 1 × 10^4 cells/cm^2, they were exposed, after 24 post-sendings, to the drug panel for 48 or 72 h. The cells were fixed according to the previously described methods before being stained with 50 μg/mL PI solution. The signal intensity was analysed with a Beckman Coulter Gallios (Brea, CA, USA) equipped with a blue solid diode laser (488 nm) and a red solid diode laser (635 nm), collecting fluorescence with a 620 nm-long pass filter.

Caco-2 cells [3] = assay: Intracellular ROS levels, dichlorofluorescein assay; assay type: cell-based, human; details: Caco-2, different concentrations, 1, 3 and 24 h
Protocol: After the Caco-2 cells were seeded in a 96-well plate at a density of 4 × 10^3 cells/well, the intracellular ROS levels were determined with a dichlorofluorescein assay, following the protocol used by Quero et al.. The cells were exposed to the drug panel for 1, 3 and 24 h, and then incubated with 20 µM 2′-7′-dichlorofluorescein diacetate (DCFH-DA) (Merck KGaA, Darmstadt, Germany) in DMEM. The generation of oxidized derivative DCF was monitored by measuring the increase of the fluorescence for 1 h, at an emission wavelength of 520 nm and an excitation of 485 nm, using a FLUOstar Omega (BMG Labtech, Ortenberg, Germany) multiplate reader. The results were expressed as percentage of the fluorescence with respect to the control, considering the fluorescence intensity as a reflection of the intracellular ROS levels.

[4] = biological target: T2, recombinant human enzyme TrxR1 (Homo sapiens, UniProt Q16881); assay: Thioredoxin reductase 1 (TrxR1) activity assay (DTNB); assay type: biochemical; details: recombinant TrxR1, complexes at their IC50 values (1 1.14 μM, 8 7.22 μM), 5 min incubation
T2 construct: purchased Sigma SRP 6081
T2 sequence (Q16881 161-647 limits assumed): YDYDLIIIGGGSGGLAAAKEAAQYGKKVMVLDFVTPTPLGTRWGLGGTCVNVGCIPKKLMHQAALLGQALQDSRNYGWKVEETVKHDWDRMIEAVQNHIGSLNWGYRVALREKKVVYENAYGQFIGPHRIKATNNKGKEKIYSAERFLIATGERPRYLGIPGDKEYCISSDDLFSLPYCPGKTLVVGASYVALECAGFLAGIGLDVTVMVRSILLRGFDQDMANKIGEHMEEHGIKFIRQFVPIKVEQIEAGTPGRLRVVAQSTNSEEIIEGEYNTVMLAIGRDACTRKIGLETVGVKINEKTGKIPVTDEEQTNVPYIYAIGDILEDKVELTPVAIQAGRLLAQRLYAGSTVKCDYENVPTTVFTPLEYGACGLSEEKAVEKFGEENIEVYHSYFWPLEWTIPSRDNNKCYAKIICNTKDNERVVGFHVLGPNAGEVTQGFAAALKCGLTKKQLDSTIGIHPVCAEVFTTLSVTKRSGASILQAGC
Protocol: The in vitro interaction of metal complexes with the enzyme thioredoxin reductase was analyzed using a thioredoxin reductase assay kit (Sigma, CS0170, St Louis, MO, USA). The procedure instructions in the kit were followed, though the rat liver thioredoxin reductase was replaced with recombinant human enzyme TrxR1 (SRP 6081, Sigma, St Louis, MO, USA). The reaction was initiated by adding DTNB (100 mM), and conversion to TNB^− was monitored at 412 nm every 30 s for 22 min using a SPECTROstar Nano (BMG Labtech, Ortenberg, Germany) multiplate reader. The results were expressed as a percentage of the TrxR activity with respect to the control.

Compound: O=S(=O)(NC(=S)[S][Au][PH](c1ccccc1)(c1ccccc1)c1ccccc1)c1ccccc1 [Complex 1, [Au(S2CNHSO2C6H5)(PPh3)]]
- reduction in the esterase activity of CA [1]: 48%
- cells with active p53 (p53): significant increase in cells with active p53
- cell cycle distribution (Caco-2 cells [2]): significantly increased the number of cells arrested in the G1 phase
- intracellular ROS levels (Caco-2 cells [3]): time- and concentration-dependent pro-oxidant effect
- decrease in TrxR activity [4]: around 80%

Compound: [Au(S2CNHSO2-p-Me-C6H4)(IMePropargyl)] [Complex 8]
- reduction in the esterase activity of CA [1]: 31%
- cells with active p53 (p53): significant increase in cells with active p53
- cell cycle distribution (Caco-2 cells [2]): significantly increased the number of cells arrested in the G1 phase
- intracellular ROS levels (Caco-2 cells [3]): time- and concentration-dependent pro-oxidant effect
- decrease in TrxR activity [4]: around 80%
